Experiments:
[1] = target: 5'-AMP-activated protein kinase catalytic subunit alpha-1 (Homo sapiens) (UniProt Q13131); details: Compound concentration 1000.0 nM
[2] = target: Macrophage colony-stimulating factor 1 receptor (Homo sapiens) (UniProt P07333); details: Compound concentration 1000.0 nM
[3] = target: Mitogen-activated protein kinase kinase kinase kinase 5 (Homo sapiens) (UniProt Q9Y4K4); details: Compound concentration 1000.0 nM
[4] = target: Dual specificity mitogen-activated protein kinase kinase 1 (Homo sapiens) (UniProt Q02750); details: Compound concentration 1000.0 nM
[5] = target: Serine/threonine-protein kinase PAK 5 (Homo sapiens) (UniProt Q9P286); details: Compound concentration 1000.0 nM
[6] = target: Serine/threonine-protein kinase MAK (Homo sapiens) (UniProt P20794); details: Compound concentration 1000.0 nM
[7] = target: MAP/microtubule affinity-regulating kinase 4 (Homo sapiens) (UniProt Q96L34); details: Compound concentration 1000.0 nM
[8] = target: 5-hydroxytryptamine receptor 1D (Homo sapiens) (UniProt P28221); details: Compound concentration 10.0 uM
Sequence of 5-hydroxytryptamine receptor 1D (Homo sapiens) (P28221 whole entry): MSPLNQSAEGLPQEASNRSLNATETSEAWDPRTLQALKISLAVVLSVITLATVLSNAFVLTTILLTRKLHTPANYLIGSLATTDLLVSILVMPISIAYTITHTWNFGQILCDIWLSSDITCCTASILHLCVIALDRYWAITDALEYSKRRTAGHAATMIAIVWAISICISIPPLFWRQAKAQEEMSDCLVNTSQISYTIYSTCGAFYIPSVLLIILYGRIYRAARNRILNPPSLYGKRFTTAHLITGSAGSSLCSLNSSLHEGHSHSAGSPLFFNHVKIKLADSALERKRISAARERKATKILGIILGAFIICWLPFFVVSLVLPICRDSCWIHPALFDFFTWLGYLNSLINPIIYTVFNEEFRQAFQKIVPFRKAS

[9] = target: Serine/threonine-protein kinase LATS2 (Homo sapiens) (UniProt Q9NRM7); details: Compound concentration 1000.0 nM
[10] = target: Mitogen-activated protein kinase kinase kinase kinase 2 (Homo sapiens) (UniProt Q12851); details: Compound concentration 1000.0 nM
Sequence of Mitogen-activated protein kinase kinase kinase kinase 2 (Homo sapiens) (Q12851 whole entry): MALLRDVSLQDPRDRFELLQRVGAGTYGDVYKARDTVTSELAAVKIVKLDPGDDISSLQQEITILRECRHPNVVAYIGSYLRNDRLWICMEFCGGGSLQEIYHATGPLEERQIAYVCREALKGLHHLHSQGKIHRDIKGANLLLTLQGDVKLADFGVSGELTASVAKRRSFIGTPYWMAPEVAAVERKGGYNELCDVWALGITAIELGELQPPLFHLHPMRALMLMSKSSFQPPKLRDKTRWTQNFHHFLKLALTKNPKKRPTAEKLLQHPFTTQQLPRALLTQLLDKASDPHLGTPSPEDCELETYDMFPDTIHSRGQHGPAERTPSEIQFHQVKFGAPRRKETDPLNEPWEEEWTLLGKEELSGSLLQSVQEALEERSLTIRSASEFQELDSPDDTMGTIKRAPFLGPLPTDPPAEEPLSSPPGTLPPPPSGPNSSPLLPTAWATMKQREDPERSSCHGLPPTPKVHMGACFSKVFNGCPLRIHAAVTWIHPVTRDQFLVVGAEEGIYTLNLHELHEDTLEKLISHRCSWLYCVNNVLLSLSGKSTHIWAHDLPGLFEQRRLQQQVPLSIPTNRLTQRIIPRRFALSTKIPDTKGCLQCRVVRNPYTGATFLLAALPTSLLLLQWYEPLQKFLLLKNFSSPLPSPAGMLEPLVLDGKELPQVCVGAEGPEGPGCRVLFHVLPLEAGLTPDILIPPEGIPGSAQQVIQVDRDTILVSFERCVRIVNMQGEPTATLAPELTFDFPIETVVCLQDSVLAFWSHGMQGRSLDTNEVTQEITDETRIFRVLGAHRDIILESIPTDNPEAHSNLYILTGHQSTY

[11] = tested on: Hepatocyte growth factor receptor (Homo sapiens), P08581 [Y1235D]; details: Compound concentration 1000.0 nM
[12] = target: Misshapen-like kinase 1 (Homo sapiens) (UniProt Q8N4C8); details: Compound concentration 1000.0 nM
[13] = target: STE20/SPS1-related proline-alanine-rich protein kinase (Homo sapiens) (UniProt Q9UEW8); details: Compound concentration 1000.0 nM
[14] = target: Serine/threonine-protein kinase NLK (Homo sapiens) (UniProt Q9UBE8); details: Compound concentration 1000.0 nM
[15] = target: RAC-gamma serine/threonine-protein kinase (Homo sapiens) (UniProt Q9Y243); details: Compound concentration 1000.0 nM
[16] = target: Serine/threonine-protein kinase Nek5 (Homo sapiens) (UniProt Q6P3R8); details: Compound concentration 1000.0 nM
[17] = target: Casein kinase II subunit alpha' (Homo sapiens) (UniProt P19784); details: Compound concentration 1000.0 nM
[18] = target: 5'-AMP-activated protein kinase catalytic subunit alpha-2 (Homo sapiens) (UniProt P54646); details: Compound concentration 1000.0 nM
[19] = target: Phosphatidylinositol 4,5-bisphosphate 3-kinase catalytic subunit gamma isoform (Homo sapiens) (UniProt P48736); details: Compound concentration 1000.0 nM
[20] = target: Phosphatidylinositol 4,5-bisphosphate 3-kinase catalytic subunit beta isoform (Homo sapiens) (UniProt P42338); details: Compound concentration 1000.0 nM
[21] = target: Cyclin-dependent kinase 18 (Homo sapiens) (UniProt Q07002); details: Compound concentration 1000.0 nM
[22] = target: Vascular endothelial growth factor receptor 3 (Homo sapiens) (UniProt P35916); details: Compound concentration 1000.0 nM
[23] = target: Mitogen-activated protein kinase kinase kinase 15 (Homo sapiens) (UniProt Q6ZN16); details: Compound concentration 1000.0 nM
[24] = target: Sodium-dependent noradrenaline transporter (Homo sapiens) (UniProt P23975); details: Compound concentration 10.0 uM
[25] = target: Serine/threonine-protein kinase NIM1 (Homo sapiens) (UniProt Q8IY84); details: Compound concentration 1000.0 nM
[26] = target: Dual specificity protein kinase CLK1 (Homo sapiens) (UniProt P49759); details: Compound concentration 1000.0 nM
[27] = tested on: Epidermal growth factor receptor (Homo sapiens), P00533 [UNDEFINED MUTATION]; details: Compound concentration 1000.0 nM
[28] = target: Tyrosine-protein kinase ITK/TSK (Homo sapiens) (UniProt Q08881); details: Compound concentration 1000.0 nM
[29] = target: Myosin light chain kinase (Homo sapiens) (UniProt Q32MK0); details: Compound concentration 1000.0 nM
Sequence of Myosin light chain kinase (Homo sapiens) (Q32MK0 whole entry): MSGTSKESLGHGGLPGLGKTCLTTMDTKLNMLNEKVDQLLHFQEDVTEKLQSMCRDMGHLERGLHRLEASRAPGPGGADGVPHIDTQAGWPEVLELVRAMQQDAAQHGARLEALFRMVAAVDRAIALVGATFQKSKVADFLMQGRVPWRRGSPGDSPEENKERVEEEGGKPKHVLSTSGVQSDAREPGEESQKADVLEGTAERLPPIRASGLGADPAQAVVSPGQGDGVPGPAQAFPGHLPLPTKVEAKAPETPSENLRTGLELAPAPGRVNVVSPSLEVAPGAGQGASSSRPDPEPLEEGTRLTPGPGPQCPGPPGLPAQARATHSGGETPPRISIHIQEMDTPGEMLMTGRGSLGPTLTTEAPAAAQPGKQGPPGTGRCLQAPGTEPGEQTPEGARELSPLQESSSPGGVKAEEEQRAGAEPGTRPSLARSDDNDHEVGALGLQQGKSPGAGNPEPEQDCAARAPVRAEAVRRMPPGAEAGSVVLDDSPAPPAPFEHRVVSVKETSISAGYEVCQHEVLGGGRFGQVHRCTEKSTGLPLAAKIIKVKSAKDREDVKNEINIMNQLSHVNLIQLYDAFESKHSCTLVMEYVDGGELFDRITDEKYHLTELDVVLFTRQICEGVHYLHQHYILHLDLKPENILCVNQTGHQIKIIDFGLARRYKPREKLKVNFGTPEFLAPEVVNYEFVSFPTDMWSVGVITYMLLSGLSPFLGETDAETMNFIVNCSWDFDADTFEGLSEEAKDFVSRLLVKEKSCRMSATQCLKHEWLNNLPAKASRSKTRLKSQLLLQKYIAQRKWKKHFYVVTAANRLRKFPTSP

[30] = target: ALK tyrosine kinase receptor (Homo sapiens) (UniProt Q9UM73); details: Compound concentration 1000.0 nM
[31] = target: Serine/threonine-protein kinase Chk2 (Homo sapiens) (UniProt O96017); details: Compound concentration 1000.0 nM
[32] = target: Serine/threonine-protein kinase Nek4 (Homo sapiens) (UniProt P51957); details: Compound concentration 1000.0 nM
[33] = target: Insulin-like growth factor 1 receptor (Homo sapiens) (UniProt P08069); details: Compound concentration 1000.0 nM
Sequence of Insulin-like growth factor 1 receptor (Homo sapiens) (P08069 31-736 limits assumed): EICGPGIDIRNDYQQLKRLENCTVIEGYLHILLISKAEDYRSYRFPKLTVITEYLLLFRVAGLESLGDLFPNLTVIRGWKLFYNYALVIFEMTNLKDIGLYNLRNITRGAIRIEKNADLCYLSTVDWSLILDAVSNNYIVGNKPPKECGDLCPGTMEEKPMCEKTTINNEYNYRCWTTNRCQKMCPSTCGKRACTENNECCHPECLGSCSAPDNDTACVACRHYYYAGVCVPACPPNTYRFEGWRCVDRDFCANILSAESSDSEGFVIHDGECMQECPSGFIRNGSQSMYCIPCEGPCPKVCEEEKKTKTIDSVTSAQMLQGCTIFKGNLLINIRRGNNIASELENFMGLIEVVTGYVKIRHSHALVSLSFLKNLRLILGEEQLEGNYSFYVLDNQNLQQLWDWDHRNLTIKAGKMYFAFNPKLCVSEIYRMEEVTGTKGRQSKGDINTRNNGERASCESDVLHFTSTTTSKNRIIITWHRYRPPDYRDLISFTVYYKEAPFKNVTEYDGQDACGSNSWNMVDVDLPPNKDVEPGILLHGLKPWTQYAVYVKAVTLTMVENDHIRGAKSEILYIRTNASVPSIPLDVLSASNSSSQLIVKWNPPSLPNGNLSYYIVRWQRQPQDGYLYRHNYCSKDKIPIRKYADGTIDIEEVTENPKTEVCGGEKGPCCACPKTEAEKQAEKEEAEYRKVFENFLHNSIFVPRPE
Sequence of Insulin-like growth factor 1 receptor (Homo sapiens) (P08069 741-1367 limits assumed): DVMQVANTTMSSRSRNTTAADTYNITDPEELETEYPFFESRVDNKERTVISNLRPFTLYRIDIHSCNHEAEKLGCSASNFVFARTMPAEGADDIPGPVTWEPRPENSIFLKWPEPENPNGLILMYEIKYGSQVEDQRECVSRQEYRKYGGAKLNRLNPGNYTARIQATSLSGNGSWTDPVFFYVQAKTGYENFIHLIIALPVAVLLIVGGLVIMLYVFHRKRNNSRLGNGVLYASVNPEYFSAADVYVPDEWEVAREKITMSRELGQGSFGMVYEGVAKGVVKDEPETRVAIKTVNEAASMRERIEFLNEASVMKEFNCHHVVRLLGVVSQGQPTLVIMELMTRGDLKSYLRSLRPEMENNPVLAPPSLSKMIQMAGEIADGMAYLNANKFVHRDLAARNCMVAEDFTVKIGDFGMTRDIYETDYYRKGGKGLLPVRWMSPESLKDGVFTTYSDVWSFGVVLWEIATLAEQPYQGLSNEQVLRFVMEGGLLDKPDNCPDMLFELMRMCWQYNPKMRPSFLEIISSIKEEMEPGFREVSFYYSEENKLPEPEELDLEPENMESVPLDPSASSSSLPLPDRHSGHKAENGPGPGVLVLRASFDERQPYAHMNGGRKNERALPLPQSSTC

[34] = target: Mitogen-activated protein kinase 8 (Homo sapiens) (UniProt P45983); details: Compound concentration 1000.0 nM
[35] = target: Mitogen-activated protein kinase 6 (Homo sapiens) (UniProt Q16659); details: Compound concentration 1000.0 nM
[36] = tested on: Mast/stem cell growth factor receptor Kit (Homo sapiens), P10721 [V559D]; details: Compound concentration 1000.0 nM
Sequence of Mast/stem cell growth factor receptor Kit (Homo sapiens), P10721 [V559D] (P10721 whole entry V559D): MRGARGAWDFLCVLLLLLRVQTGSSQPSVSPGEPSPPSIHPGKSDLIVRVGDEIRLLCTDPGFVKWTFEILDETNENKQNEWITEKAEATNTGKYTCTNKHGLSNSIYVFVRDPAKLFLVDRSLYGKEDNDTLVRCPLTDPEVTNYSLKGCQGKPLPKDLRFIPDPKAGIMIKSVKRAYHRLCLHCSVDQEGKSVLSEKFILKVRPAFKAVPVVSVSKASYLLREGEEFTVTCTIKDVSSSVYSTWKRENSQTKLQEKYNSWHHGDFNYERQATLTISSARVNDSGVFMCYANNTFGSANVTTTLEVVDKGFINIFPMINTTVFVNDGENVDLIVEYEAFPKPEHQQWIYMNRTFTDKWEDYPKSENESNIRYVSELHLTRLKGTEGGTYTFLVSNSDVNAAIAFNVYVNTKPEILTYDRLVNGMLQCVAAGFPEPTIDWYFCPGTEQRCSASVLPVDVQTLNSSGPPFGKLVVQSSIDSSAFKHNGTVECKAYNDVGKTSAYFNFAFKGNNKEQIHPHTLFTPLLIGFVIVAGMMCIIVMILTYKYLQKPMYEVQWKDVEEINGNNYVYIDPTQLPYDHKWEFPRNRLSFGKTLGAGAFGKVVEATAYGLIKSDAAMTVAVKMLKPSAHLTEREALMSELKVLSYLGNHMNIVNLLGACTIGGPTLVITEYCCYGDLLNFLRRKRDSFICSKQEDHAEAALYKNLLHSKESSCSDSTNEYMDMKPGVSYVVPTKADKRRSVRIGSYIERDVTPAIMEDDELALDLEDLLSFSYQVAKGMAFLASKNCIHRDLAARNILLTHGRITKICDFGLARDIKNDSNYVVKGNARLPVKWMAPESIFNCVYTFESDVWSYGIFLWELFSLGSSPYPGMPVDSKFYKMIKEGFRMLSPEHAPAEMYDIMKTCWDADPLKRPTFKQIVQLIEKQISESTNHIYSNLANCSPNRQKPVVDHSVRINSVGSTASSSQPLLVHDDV

[37] = target: Serine/threonine-protein kinase 36 (Homo sapiens) (UniProt Q9NRP7); details: Compound concentration 1000.0 nM
[38] = target: Serine/threonine-protein kinase Nek6 (Homo sapiens) (UniProt Q9HC98); details: Compound concentration 1000.0 nM
[39] = tested on: Epidermal growth factor receptor (Homo sapiens), P00533 [G719S]; details: Compound concentration 1000.0 nM
[40] = target: Histamine H4 receptor (Homo sapiens) (UniProt Q9H3N8); details: Compound concentration 10.0 uM
[41] = target: Serine/threonine-protein kinase PLK1 (Homo sapiens) (UniProt P53350); details: Compound concentration 1000.0 nM
Sequence of Serine/threonine-protein kinase PLK1 (Homo sapiens) (P53350 whole entry): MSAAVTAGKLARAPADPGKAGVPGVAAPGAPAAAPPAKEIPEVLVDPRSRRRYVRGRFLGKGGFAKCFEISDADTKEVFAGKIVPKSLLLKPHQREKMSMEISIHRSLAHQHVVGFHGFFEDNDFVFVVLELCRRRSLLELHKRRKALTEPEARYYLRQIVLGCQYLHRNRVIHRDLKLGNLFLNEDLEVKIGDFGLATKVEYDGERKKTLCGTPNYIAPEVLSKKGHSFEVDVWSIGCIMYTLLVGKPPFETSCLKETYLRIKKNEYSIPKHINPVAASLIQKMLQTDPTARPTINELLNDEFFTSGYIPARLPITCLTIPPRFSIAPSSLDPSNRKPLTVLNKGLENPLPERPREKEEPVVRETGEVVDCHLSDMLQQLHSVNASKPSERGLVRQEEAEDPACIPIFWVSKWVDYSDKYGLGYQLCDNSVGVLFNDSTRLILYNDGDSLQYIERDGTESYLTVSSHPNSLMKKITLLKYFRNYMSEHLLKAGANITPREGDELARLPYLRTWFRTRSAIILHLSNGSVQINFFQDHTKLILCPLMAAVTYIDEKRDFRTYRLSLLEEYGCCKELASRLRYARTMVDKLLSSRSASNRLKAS

[42] = target: Megakaryocyte-associated tyrosine-protein kinase (Homo sapiens) (UniProt P42679); details: Compound concentration 1000.0 nM
[43] = target: Protein-tyrosine kinase 2-beta (Homo sapiens) (UniProt Q14289); details: Compound concentration 1000.0 nM
[44] = target: Serine/threonine-protein kinase SIK3 (Homo sapiens) (UniProt Q9Y2K2); details: Compound concentration 1000.0 nM
[45] = target: LIM domain kinase 1 (Homo sapiens) (UniProt P53667); details: Compound concentration 1000.0 nM

Cn1cncc1[C@@](O)(COc1ccc(C#N)cc1-c1ccc(OC(F)(F)F)cc1)c1ccc(C#N)cc1 [A-108]
inactive: residual activity [1] 100% | residual activity [2] 100% | residual activity [3] 100% | residual activity [4] 89% | residual activity [5] 100% | residual activity [6] 99% | residual activity [7] 100% | inhibition [8] 6.65% | residual activity [9] 100% | residual activity [10] 100% | residual activity [11] 100% | residual activity [12] 100% | residual activity [13] 100% | residual activity [14] 100% | residual activity [15] 100% | residual activity [16] 98% | residual activity [17] 100% | residual activity [18] 87% | residual activity [19] 69% | residual activity [20] 75% | residual activity [21] 100% | residual activity [22] 90% | residual activity [23] 83% | inhibition [24] 5.18% | residual activity [25] 97% | residual activity [26] 100% | residual activity [27] 60% | residual activity [28] 100% | residual activity [29] 96% | residual activity [30] 70% | residual activity [31] 96% | residual activity [32] 90% | residual activity [33] 100% | residual activity [34] 77% | residual activity [35] 93% | residual activity [36] 97% | residual activity [37] 93% | residual activity [38] 95% | residual activity [39] 74% | inhibition [40] -3.79% | residual activity [41] 83% | residual activity [42] 100% | residual activity [43] 100% | residual activity [44] 97% | residual activity [45] 100%

Cn1cncc1[C@](O)(COc1ccc(C#N)cc1-c1ccc(OC(F)(F)F)cc1)c1ccc(C#N)cc1 [ABT-100]
inactive: residual activity [1] 99% | residual activity [2] 93% | residual activity [3] 100% | residual activity [4] 100% | residual activity [5] 94% | residual activity [6] 100% | residual activity [7] 56% | inhibition [8] -0.932% | residual activity [9] 100% | residual activity [10] 100% | residual activity [11] 78% | residual activity [12] 94% | residual activity [13] 50% | residual activity [14] 89% | residual activity [15] 100% | residual activity [16] 72% | residual activity [17] 100% | residual activity [18] 100% | residual activity [19] 100% | residual activity [20] 96% | residual activity [21] 90% | residual activity [22] 77% | residual activity [23] 90% | inhibition [24] 21.7% | residual activity [25] 87% | residual activity [26] 70% | residual activity [27] 80% | residual activity [28] 91% | residual activity [29] 100% | residual activity [30] 100% | residual activity [31] 100% | residual activity [32] 100% | residual activity [33] 92% | residual activity [34] 100% | residual activity [35] 85% | residual activity [36] 100% | residual activity [37] 80% | residual activity [38] 95% | residual activity [39] 79% | inhibition [40] -6.36% | residual activity [41] 77% | residual activity [42] 98% | residual activity [43] 62% | residual activity [44] 67% | residual activity [45] 89%

Source: ChEMBL document CHEMBL4507257, “Data for DCP probe ABT-100” (2021)
